Biological target: T1, human GPR40 (Homo sapiens, UniProt O14842)
T1 construct: expressed in transfected cells
Test: Determination of EC50 against human GPR40: changes in intracellular calcium concentration by FLIPR in CHO cells stably expressing human GPR40
Format: cell-based
Details: CHO cell line stably expressing human GPR40, Fluo3-AM, read-out: EC50 (Receptor Function Modulating Action On GPR40)
Procedure: Determination of EC50 of the Compound of the Present Invention Against Human GPR40
For determination of EC50, CHO cell line that stably expressed human GPR40 was used. Unless otherwise indicated, the CHO cell line was cultured using α-MEM medium (Invitrogen) containing 10% fetal calf serum (Invitrogen).
The cells cultured to nearly confluent were rinsed with PBS (Invitrogen) on the previous day of the assay, peeled off with 0.05% Trypsin-EDTA solution (Invitrogen) and recovered by centrifugation. The number of the obtained cells was counted, and the cells were diluted such that 3×10^5 cells were contained per 1 mL of the medium, dispensed to a black welled 96-well plate (coster) by 100 μL per well and cultured overnight in a CO2 incubator. Various test compounds were added to the CHO cells thus prepared, and the changes in the intracellular calcium concentration was measured using FLIPR (Molecular Device). The below-mentioned pre-treatment was applied to measure changes in the intracellular calcium concentration by FLIPR.
An assay buffer for adding a fluorescence dye Fluo3-AM (DOJIN) to the cells, or for washing the cells immediately before FLIPR assay was prepared. To a solution of 1M HEPES (pH 7.4, DOJIN, 20 mL) added to HBSS (Invitrogen, 1000 mL) (hereinafter HBSS/HEPES solution) was added a solution (10 mL) obtained by dissolving probenecid (Sigma, 710 mg) in 1N NaOH (5 mL), and adding and mixing an HBSS/HEPES solution (5 mL), and the resulting solution was used as an assay buffer. Fluo3-AM (50 μg) was dissolved in dimethylsulfoxide (Wako, 21 μL), and an equivalent amount of 20% pluronic acid (Molecular Probes) was added and mixed. The solution was added to the assay buffer (10.6 mL) supplemented with fetal calf serum (105 μL) to give a fluorescence dye solution. […], the medium of the CHO cells newly inoculated to the black welled 96-well plate was removed, the fluorescence dye solution was immediately dispensed by 100 μL per well and the cells were cultured in a CO2 incubator for 1 hr to allow intake of the fluorescence dye by the cells. The cells after the culture were washed with the above-mentioned assay buffer and set on FLIPR. The test compound was diluted with dimethylsulfoxide in advance, dispensed to polypropylene 96-well plate (sample plate) by 2 μL, and cryopreserved at −20° C. To the thawed sample plate was added an assay buffer containing 0.015% CHAPS (DOJIN) by 198 μL, and simultaneously set on FLIPR together with the cell plate. After the aforementioned pre-treatment, changes in the intracellular calcium concentration upon addition of various test compounds was measured by FLIPR. Based on the results, a dose-response curve of each test compound was formed and EC50 was calculated.

T1 sequence (O14842 whole entry): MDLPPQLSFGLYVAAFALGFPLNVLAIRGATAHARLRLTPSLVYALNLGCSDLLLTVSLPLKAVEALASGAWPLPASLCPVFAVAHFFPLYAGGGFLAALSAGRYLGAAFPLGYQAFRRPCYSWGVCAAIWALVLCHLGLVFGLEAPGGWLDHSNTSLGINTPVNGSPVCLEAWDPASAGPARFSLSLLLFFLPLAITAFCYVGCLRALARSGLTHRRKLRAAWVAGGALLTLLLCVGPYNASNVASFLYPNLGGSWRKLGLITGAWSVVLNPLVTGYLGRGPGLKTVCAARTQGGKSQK

Which EC50 does the source give for `Cc1cc(OCCc2scnc2C)ccc1-c1cccc(COc2ccc(CCC(=O)O)cc2)c1` [Example 14, 3-[4-({2′-methyl-4′-[2-(4-methyl-1,3-thiazol-5-yl)ethoxy]biphenyl-3-yl}methoxy)phenyl]propanoic acid] here?
The EC50 was 10 nM.

Which EC50 does the source give for `Cc1cc(Cl)ccc1-c1cccc(COc2ccc(CCC(=O)O)cc2)c1` [Example 33, 3-[4-[(4′-chloro-2′-methylbiphenyl-3-yl)methoxy]phenyl]propanoic acid] here?
The EC50 was 6.1 nM.

Which EC50 does the source give for `Cc1cc(OCc2ccccc2)cc(C)c1-c1cccc(COc2ccc(CCC(=O)O)cc2)c1` [Example 39, 3-[4-[[4′-(benzyloxy)-2′,6′-dimethylbiphenyl-3-yl]methoxy]phenyl]propanoic acid] here?
The EC50 was 32 nM.

Which EC50 does the source give for `COc1ccc(COc2ccc(CCC(=O)O)cc2)cc1-c1ccc(C)cc1C` [Example 49, 3-(4-((6-methoxy-2′,4′-dimethylbiphenyl-3-yl)methoxy)phenyl)propanoic acid] here?
Its EC50 is 11 nM.

Which EC50 does the source give for `Cc1cc(C)c(-c2cccc(COc3ccc(CCC(=O)O)c(F)c3)c2)c(COc2ccc(F)cc2)c1` [Example 54, 3-{2-fluoro-4-[(2′-(4-fluorophenoxymethyl)-4′,6′-dimethylbiphenyl-3-yl)methoxy]phenyl}propanoic acid] here?
Its EC50 is 49 nM.

For `CCOCCOc1cc(C)c(-c2cccc(COc3ccc(CC(F)(F)C(=O)O)cc3)c2)c(C)c1` [Example 75, 3-(4-{[4′-(2-ethoxyethoxy)-2′,6′-dimethylbiphenyl-3-yl]methoxy}phenyl)-2,2-difluoropropanoic acid], which EC50 is on record?
Its EC50 is 16 nM.

With `CCS(=O)(=O)CCOc1cc(C)c(-c2cccc(COc3ccc(CCC(=O)O)c(F)c3)c2)c(C)c1` [Example 86, 3-[4-({4′-[2-(ethylsulfonyl)ethoxy]-2′,6′-dimethylbiphenyl-3-yl}methoxy)-2-fluorophenyl]propanoic acid] as the compound, how does the EC50 read?
The EC50 was 32 nM.

Which EC50 does the source give for `Cc1cc(OCCCN2CCCC2=O)cc(C)c1-c1cccc(COc2ccc(CCC(=O)O)c(F)c2)c1` [Example 90, 3-[4-({2′,6′-dimethyl-4′-[3-(2-oxopyrrolidin-1-yl)propoxy]biphenyl-3-yl}methoxy)-2-fluorophenyl]propanoic acid] here?
Its EC50 is 34 nM.

Which EC50 does the source give for `Cc1cccc(COc2cc(C)c(-c3cccc(COc4ccc(CCC(=O)O)c(F)c4)c3)c(C)c2)n1.Cl` [Example 97, 3-[4-({2′,6′-dimethyl-4′-[(6-methylpyridin-2-yl)methoxy]biphenyl-3-yl}methoxy)-2-fluorophenyl]propanoic acid hydrochloride] here?
Its EC50 is 23 nM.

With `Cc1cc(OCC2(O)CCS(=O)(=O)CC2)cc(C)c1-c1cccc(COc2ccc(CCC(=O)O)c(F)c2)c1` [Example 100, 3-[2-fluoro-4-({4′-[(4-hydroxy-1,1-dioxidotetrahydro-2H-thiopyran-4-yl)methoxy]-2′,6′-dimethylbiphenyl-3-yl}methoxy)phenyl]propanoic acid] as the compound, how does the EC50 read?
The EC50 was 17 nM.

For `Cc1cc(OS(C)(=O)=O)cc(C)c1-c1cccc(COc2ccc(CCC(=O)O)c(F)c2)c1` [Example 102, 3-[4-({2′,6′-dimethyl-4′-[(methylsulfonyl)oxy]biphenyl-3-yl}methoxy)-2-fluorophenyl]propanoic acid], which EC50 is on record?
Its EC50 is 15 nM.

For `Cc1cc(OC2CCS(=O)(=O)CC2)cc(C)c1-c1cccc(COc2ccc(CCC(=O)O)c(F)c2)c1` [Example 114, 3-[4-({4′-[(1,1-dioxidotetrahydro-2H-thiopyran-4-yl)oxy]-2′,6′-dimethylbiphenyl-3-yl}methoxy)-2-fluorophenyl]propanoic acid], which EC50 is on record?
Its EC50 is 20 nM.

Test system: not given
Test: not given
Details: not given

Which melting point does the source give for `Cc1cccc(COc2cc(C)c(-c3cccc(COc4ccc(CCC(=O)O)c(F)c4)c3)c(C)c2)n1.Cl` [Example 97, 3-[4-({2′,6′-dimethyl-4′-[(6-methylpyridin-2-yl)methoxy]biphenyl-3-yl}methoxy)-2-fluorophenyl]propanoic acid hydrochloride] here?
The melting point was 55 to 56 °C.

Which melting point does the source give for `Cc1cc(OS(C)(=O)=O)cc(C)c1-c1cccc(COc2ccc(CCC(=O)O)c(F)c2)c1` [Example 102, 3-[4-({2′,6′-dimethyl-4′-[(methylsulfonyl)oxy]biphenyl-3-yl}methoxy)-2-fluorophenyl]propanoic acid] here?
The melting point was 124 to 125 °C.

With `Cc1cc(OCC2(C)COC2)cc(C)c1-c1cccc(COc2ccc(CCC(=O)O)c(F)c2)c1` [Example 116, 3-[4-({2′,6′-dimethyl-4′-[(3-methyloxetan-3-yl)methoxy]biphenyl-3-yl}methoxy)-2-fluorophenyl]propanoic acid] as the compound, how does the melting point read?
Its melting point is 112 to 113 °C.
